Source: patent US20040176361A1, “Fused heterocyclic compound and medicinal use thereof” (priority 2001, published 2004)
Structures can show the parent of a compound that is named as a salt.

Experiments:
[1] = molecular target: Recombinant human PARP (Homo sapiens, UniProt P09874); assay: PARP enzyme activity inhibitory action; conditions: PARP inhibitory activity IC50 (nM), 3H-NAD, activated DNA, 25° C. 15 min; average of 3 measurements
Sequence of Recombinant human PARP (P09874 whole entry): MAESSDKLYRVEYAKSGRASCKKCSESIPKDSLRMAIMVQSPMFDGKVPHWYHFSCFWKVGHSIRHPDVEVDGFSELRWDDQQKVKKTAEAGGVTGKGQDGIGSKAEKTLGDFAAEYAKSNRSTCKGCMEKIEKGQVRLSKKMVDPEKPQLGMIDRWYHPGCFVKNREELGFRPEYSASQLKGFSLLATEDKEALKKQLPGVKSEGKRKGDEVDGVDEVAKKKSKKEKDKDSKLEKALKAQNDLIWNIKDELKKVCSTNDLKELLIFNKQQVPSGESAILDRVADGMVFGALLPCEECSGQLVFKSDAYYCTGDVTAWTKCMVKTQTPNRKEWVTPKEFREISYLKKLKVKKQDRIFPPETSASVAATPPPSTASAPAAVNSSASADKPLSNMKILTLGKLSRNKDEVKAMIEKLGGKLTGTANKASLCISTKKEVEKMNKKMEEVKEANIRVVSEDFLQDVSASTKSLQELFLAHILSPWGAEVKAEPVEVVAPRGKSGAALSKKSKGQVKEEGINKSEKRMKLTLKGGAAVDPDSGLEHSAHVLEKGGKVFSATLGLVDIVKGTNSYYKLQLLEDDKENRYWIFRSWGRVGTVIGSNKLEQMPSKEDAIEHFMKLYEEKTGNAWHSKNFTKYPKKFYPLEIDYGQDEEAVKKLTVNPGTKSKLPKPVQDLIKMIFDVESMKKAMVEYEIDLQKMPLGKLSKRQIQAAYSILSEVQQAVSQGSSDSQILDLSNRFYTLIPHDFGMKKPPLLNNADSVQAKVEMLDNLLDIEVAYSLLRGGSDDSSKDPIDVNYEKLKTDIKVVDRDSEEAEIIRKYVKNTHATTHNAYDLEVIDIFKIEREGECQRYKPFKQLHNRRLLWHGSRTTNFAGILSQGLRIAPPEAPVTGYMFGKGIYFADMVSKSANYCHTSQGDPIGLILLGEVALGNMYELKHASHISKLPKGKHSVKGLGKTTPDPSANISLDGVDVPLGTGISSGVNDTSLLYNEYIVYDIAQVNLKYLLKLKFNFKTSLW
Experimental: After incubation at 25° C. for 15 min., the reaction was quenched with 20% trichloroacetic acid, and the resulting acid insoluble fraction was adsorbed on a GF/B filter. The filter was washed several times with 5% trichloroacetic acid, and the radiation dose on the filter was measured by liquid scintillation counter.

| SMILES | IC50 [1] [nM] | melting point |
| --- | --- | --- |
| CN(C)C1CCN(c2cc3ccccc3c(=O)[nH]2)CC1 [Example 3, 3-(4-dimethylaminopiperidine-1-yl)-2H-isoquinolin-1-one] | 70 | 204 to 205 °C (dec.) |
| CN1CCN(c2cc3ccccc3c(=O)[nH]2)CC1CO (stereo not shown) [Example 4, 3-(3-hydroxymethyl-4-methylpiperazin-1-yl)-2H-isoquinolin-1-one] | 42 |  |
| COc1cccc2c(=O)[nH]c(N3CCN(C)CC3)cc12 [Example 18, 5-methoxy-3-(4-methylpiperazin-1-yl)-2H-isoquinolin-1-one] | 56 |  |
| CN1CCN(c2cc3c(O)cccc3c(=O)[nH]2)CC1 [Example 19, 5-hydroxy-3-(4-methylpiperazin-1-yl)-2H-isoquinolin-1-one] | 25 |  |
| CN1CCN(c2cc3c(F)cccc3c(=O)[nH]2)CC1 [Example 20, 5-fluoro-3-(4-methylpiperazin-1-yl)-2H-isoquinolin-1-one] | 75 | 238 to 239 °C (dec.) |
| CN1CCN(c2cc3c(Cl)cccc3c(=O)[nH]2)CC1 [Example 21, 5-chloro-3-(4-methylpiperazin-1-yl)-2H-isoquinolin-1-one] | 82 | 230 to 231 °C (dec.) |
| CN1CCN(c2cc3c(Br)cccc3c(=O)[nH]2)CC1 [Example 22, 5-bromo-3-(4-methylpiperazin-1-yl)-2H-isoquinolin-1-one] | 96 | 240 to 241 °C (dec.) |
| CN(C)C1CCN(c2cc3c(F)cccc3c(=O)[nH]2)CC1 [Example 28, 5-fluoro-3-(4-dimethylaminopiperidin-1-yl)-2H-isoquinolin-1-one] | 63 |  |
| CN(C)C1CCN(c2cc3c(Cl)cccc3c(=O)[nH]2)CC1 [Example 29, 5-chloro-3-(4-dimethylaminopiperidin-1-yl)-2H-isoquinolin-1-one] | 65 | 210 to 211 °C (dec.) |
| CN(C)CCCc1cc2ccccc2c(=O)[nH]1 [Example 85, 3-(3-(dimethylamino)propyl)-2H-isoquinolin-1-one] | 47 |  |
| O=c1[nH]c(C2CN3CCC2CC3)cc2ccccc12 (stereo not shown) [Example 86, 3-(1-azabicyclo[2.2.2]octan-3-yl)-2H-isoquinolin-1-one] | 61 |  |
| Cc1cccc2c(=O)[nH]c(C3CCNCC3)cc12 [Example 93, 3-(piperidin-4-yl)-5-methyl-2H-isoquinolin-1-one hydrochloride] | 44 |  |
| CN1CCC(c2[nH]c(=O)c3ccccc3c2-c2ccccc2)CC1 [Example 98, 3-(1-methylpiperidin-4-yl)-4-phenyl-2H-isoquinolin-1-one ⅕ water adduct] | 87 | 258 to 260 °C (dec.) |
| CN1CCC(c2cc3c(F)cccc3c(=O)[nH]2)CC1 [Example 106, 5-fluoro-3-(1-methylpiperidin-4-yl)-2H-isoquinolin-1-one] | 40 | 220 to 222 °C |
| COc1cccc2c(=O)[nH]c(C3CCN(C)CC3)cc12 [Example 107, 5-methoxy-3-(1-methylpiperidin-4-yl)-2H-isoquinolin-1-one] | 45 | 239 to 242 °C |
| Cc1cccc2c(=O)[nH]c(C3CN4CCC3CC4)nc12 (stereo not shown) [Example 138, 2-(1-azabicyclo[2.2.2]octan-3-yl)-8-methyl-3H-quinazolin-4-one] | 58 | 230 to 231 °C (dec.) |

| SMILES | IC50 [1] [nM] | melting point |
| --- | --- | --- |
| Cc1cccc2c(=O)[nH]c(CCCN(C)C)nc12 [Example 145, 8-methyl-2-[3-(dimethylamino)propyl]-3H-quinazolin-4-one] | 39 |  |
| Cc1cccc2c(=O)[nH]c(N3CCN(C)C(CO)C3)cc12 (stereo not shown) [Example 153, 3-(3-hydroxymethyl-4-methylpiperazin-1-yl)-5-methyl-2H-isoquinolin-1-one] | 36 |  |
| Cc1cccc2c(=O)[nH]c(CCN3CCCCC3)nc12 [Example 165, 8-methyl-2-(2-piperidinoethyl)-3H-quinazolin-4-one] | 52 |  |
| Cc1cccc2c(=O)[nH]c(CCCN3CCCC3)nc12 [Example 176, 8-methyl-2-[3-(pyrrolidin-1-yl)propyl]-3H-quinazolin-4-one] | 44 |  |
| CN1CCC(c2cc3ccc(Cl)cc3c(=O)[nH]2)CC1 [Example 183, 7-chloro-3-(1-methylpiperidin-4-yl)-2H-isoquinolin-1-one] | 44 | 253 to 255 °C |
| CN1CCC(C2Cc3c(O)cccc3C(=O)N2)CC1 (stereo not shown) [Example 184, 5-hydroxy-3-(1-methylpiperidin-4-yl)-3,4-dihydro-2H-isoquinolin-1-one] | 26 | 216 to 218 °C |
| CN(C)CCCCc1cc2c(O)cccc2c(=O)[nH]1.Cl [Example 188, 5-hydroxy-3-(4-dimethylaminobutyl)-2H-isoquinolin-1-one hydrochloride] | 57 | 231 to 233 °C |
| CN1CC=C(c2cc3ccccc3c(=O)[nH]2)CC1 [Example 190, 3-(1-methyl-1,2,3,6-tetrahydropyridin-4-yl)-2H-isoquinolin-1-one] | 39 | 222 to 223 °C |
| O=c1[nH]c(N2CCN(Cc3ccccc3)C(CO)C2)cc2ccccc12 (stereo not shown) [Example 197, 3-(4-benzyl-3-hydroxymethylpiperazin-1-yl)-2H-isoquinolin-1-one] |  | 176 to 177 °C |
| O=c1[nH]c(N2CCNC(CO)C2)cc2c(Br)cccc12 (stereo not shown) [Example 198, 5-bromo-3-(3-hydroxymethylpiperazin-1-yl)-2H-isoquinolin-1-one] |  | > 230 °C (dec.) |
| CN1CCN(c2cc3c(Br)cccc3c(=O)[nH]2)CC1CO (stereo not shown) [Example 199, 5-bromo-3-(3-hydroxymethyl-4-methylpiperazin-1-yl)-2H-isoquinolin-1-one] |  | 200 to 202 °C |
| O=c1[nH]c(N2CCC(N3CCCCC3)CC2)cc2ccccc12 [Example 200, 3-(4-piperidinopiperidin-1-yl)-2H-isoquinolin-1-one] |  | > 200 °C (dec.) |
| O=c1[nH]c(N2CCCC(CO)C2)cc2ccccc12 (stereo not shown) [Example 201, 3-(3-hydroxymethylpiperidin-1-yl)-2H-isoquinolin-1-one] |  | 143 to 144 °C |
| CN(C)C(=O)C1CCCN(c2cc3ccccc3c(=O)[nH]2)C1 (stereo not shown) [Example 202, 3-(3-(dimethylcarbamoyl)piperidin-1-yl)-2H-isoquinolin-1-one] |  | 187 to 188 °C |
| CC(C)CN1CCN(c2cc3ccccc3c(=O)[nH]2)CC1CO (stereo not shown) [Example 203, 3-(3-hydroxymethyl-4-isobutylpiperazin-1-yl)-2H-isoquinolin-1-one] |  | 130 to 132 °C |
| CN1CCN(c2cc3c(F)cccc3c(=O)[nH]2)CC1CO (stereo not shown) [Example 205, 5-fluoro-3-(3-hydroxymethyl-4-methylpiperazin-1-yl)-2H-isoquinolin-1-one] | 54 | 216 to 217 °C |

Next, values leading:

| IC50 [1] [nM] | melting point | SMILES |
| --- | --- | --- |
| 26 |  | Cc1cccc2c(=O)[nH]c([C@@H]3CCN4CCCC4C3)cc12 (single isomer, unassigned) [Example 225, 5-methyl-3-(octahydroindolizin-7-yl)-2H-isoquinolin-1-one ¾ water adduct] |
| 31 |  | Cc1cccc2c(=O)[nH]c([C@@H]3CCN4CCCC4C3)cc12 (single isomer, unassigned) [Example 226, 5-methyl-3-(octahydroindolizin-7-yl)-2H-isoquinolin-1-one ½ water adduct] |
|  | 141 to 143 °C | CN(C)CC1CCCN(c2cc3ccccc3c(=O)[nH]2)C1 (stereo not shown) [Example 206, 3-(3-(dimethylaminomethyl)piperidin-1-yl)-2H-isoquinolin-1-one] |
|  | 200 to 202 °C | COCOc1ccc2cc(C3CCN(C)CC3)[nH]c(=O)c2c1 [Example 210, 7-methoxymethyloxy-3-(1-methylpiperidin-4-yl)-2H-isoquinolin-1-one] |
| 57 | 117 to 119 °C | O=c1[nH]c(CCCN2CCCC2)cc2ccccc12 [Example 213, 3-(3-(pyrrolidin-1-yl)propyl)-2H-isoquinolin-1-one] |
| 45 | 212 to 214 °C | CN1CCN(c2cc3c(Cl)cccc3c(=O)[nH]2)CC1CO (stereo not shown) [Example 214, 5-chloro-3-(3-hydroxymethyl-4-methylpiperazin-1-yl)-2H-isoquinolin-1-one] |
| 26 |  | Cc1cccc2c(=O)[nH]c(CCN3CCCCC3)cc12 [Example 218, 5-methyl-3-[2-(piperidin-1-yl)ethyl]-2H-isoquinolin-1-one] |
| 63 |  | O=c1[nH]c(CCN2CCCCC2)cc2ccccc12 [Example 219, 3-[2-(piperidin-1-yl)ethyl]-2H-isoquinolin-1-one] |
| 77 |  | O=c1[nH]c(CCN2CCCC2)cc2ccccc12 [Example 220, 3-[2-(pyrrolidin-1-yl)ethyl]-2H-isoquinolin-1-one] |
| 42 |  | Cc1cccc2c(=O)[nH]c(CCN3CCCC3)cc12 [Example 221, 5-methyl-3-[2-(pyrrolidin-1-yl)ethyl]-2H-isoquinolin-1-one] |
| 36 |  | Cc1cccc2c(=O)[nH]c(CCCN3CCCC3)cc12 [Example 222, 5-methyl-3-[3-(pyrrolidin-1-yl)propyl-1-yl]-2H-isoquinolin-1-one] |
| 72 |  | Cc1cccc2c(=O)[nH]c(CCCN3CCCCC3)cc12 [Example 228, 5-methyl-3-[3-(piperidin-1-yl)propyl]-2H-isoquinolin-1-one] |
| 68 |  | Cc1cccc2c(=O)[nH]c(C3CCN(C)C3)cc12 (stereo not shown) [Example 248, 5-methyl-3-(1-methylpyrrolidin-3-yl)-2H-isoquinolin-1-one] |
| 5100 |  | O=c1[nH]c(N2CCCCC2)cc2ccccc12 [Example Y-3010, reference compound] |
| 79 |  | O=c1[nH]c(N2CCN(CCO)CC2)cc2ccccc12 [Example Y-3079, reference compound] |
| 240 |  | Cc1cccc2c(=O)[nH]c(N3CCN(C)CC3)nc12 [Pfizer, reference compound] |
